Experimental data as given in patent US12435069B2, “Cocrystals of posaconazole, methods of making and using same” (REGENTS OF THE UNIVERSITY OF MICHIGAN, priority 2019, dated 2025).
Values after ≈ are worked out from the molar mass of the structure shown. Values joined by “and” are separate entries in the source; they are usually repeats but may differ in a detail not shown here. Equal values may be shown once. Read-outs that look alike come from different tables or passages of the source.

Assays:
[1] = Dissolution of drug or cocrystal in biorelevant media (FaSSIF, FeSSIF); type: physicochemical; conditions: for Cmax / AUC (area under the dissolution curve): 25 °C; for Cmax: 150 rpm, 3 h, 300 mg dose in 250 mL equivalent; for AUC (area under the dissolution curve): up to 180 min; for Final pH: after dissolution
Experimental: (§1) Blank FaSSIF (pH 6.50 phosphate buffer) was prepared at room temperature by dissolving 0.683 g of NaOH (pellets), 7.902 g of NaH2PO4·H2O, and 12.372 g NaCl in 2 L of purified deionized (DI) water. The pH was adjusted to 6.50 (±0.04) with 1 M NaOH and 1 M HCl solutions. Blank FeSSIF (pH 5.00 acetate buffer) was prepared at room temperature by dissolving 8.089 g NaOH (pellets), 16.4 mL acetic acid, and 23.748 g NaCl in 2 L of purified DI water. The pH was adjusted to 5.00 (±0.03) with 1 M NaOH and 1 M HCl solutions. FaSSIF and FeSSIF media were prepared by dissolving appropriate amounts of FaSSIF/FeSSIF powder in the blank media according to the manufacturer, then stored at room temperature and used within 48 hours. Blank FaSSGF (pH 1.60 buffer) was prepared at room temperature by dissolving 1.999 g of sodium chloride in 1 L of DI water. The pH was adjusted to 1.60 (±0.05) with 2 M HCl solution.
Dissolution studies of drug or cocrystal were conducted using an overhead stirrer with a glass propeller at 150 rpm over three hours. Based on a 300 mg dose in 250 mL, 36 mg of PSZ drug or 46.6 mg PSZ-4ABA cocrystal (molar equivalent PSZ amount) were added to 30 mL of dissolution media. Dissolution studies were done in FaSSIF and FeSSIF with sieved fractions of drug and cocrystals in a particle size range of 106 to 125 μm. The dissolution experiments were conducted in a water bath at 25.0 (±0.5) ° C. Initial and final solution pH was measured. Aliquots of 0.5 mL were taken with a syringe at time points up to 180 minutes. The solution samples were filtered through syringe filter with PvDF membrane of a pore size of 0.45 μm. The solution concentrations of drug and coformer were analyzed with a Waters HPLC equipped with a photodiode array UV detector. A Waters Atlantis C18 column with the dimension of 5 μm, 250×4.6 mm was used for separation. A gradient method using methanol and water with 0.1% trifluoroacetic acid was run with the flow rate set at 1 mL/min. […] The wavelengths used for the analytes were […] for PSZ, and 287 nm for 4ABA.

[2] = in vivo; cited from earlier work
[3] = Cocrystal eutectic constant (Keu): coformer and drug concentrations at the eutectic point in buffers and biorelevant media; type: physicochemical; conditions: for solubility: thermodynamic from solid, read-out: [PSZ]eu (also solubility of drug at equilibrium); for solubility / Keu ([coformer]eu/[drug]eu) / [4ABA]eu (coformer concentration at the eutectic point): 25 °C
Experimental: as §1
Cocrystal eutectic constant (Keu), which is well recognized as a key stability and solubility indicator, was determined from measurement of coformer and drug concentrations at the eutectic point, where drug and cocrystal solid phases are in equilibrium with solution according to Keu=[coformer]eu/[drug]eu. An excess amount of PSZ (approximately 200 mg) and 150 mg of PSZ-4ABA were suspended in 3 mL of blank FaSSGF, blank FaSSIF, blank FeSSIF, FaSSIF, or FeSSIF media. Biorelevant media included FaSSIF and FeSSIF. Blank media was the buffer solution in the biorelevant media without the lecithin and bile salt. The suspensions were kept in a water bath at 25.0±0.1° C. and magnetically stirred for up to 72-96 hours. Sample solutions were filtered through 0.45 μm cellulose acetate filters and analyzed by HPLC. The pH was measured and the equilibrium solids were characterized by DSC and PXRD.
Keu is proportional to the cocrystal solubility advantage over drug (SA=Scc/Sdrug), and for a 2:3 cocrystal is given by
[formula] […] Scc is lower than Sdrug when Keu is lower than 1.5. See is equal to Sdrug when Keu is equal to 1.5. The higher the Keu value, the higher is the cocrystal solubility advantage over drug (SA) and Scc.

[4] = cited from earlier work

For CC[C@@H]([C@H](C)O)n1ncn(-c2ccc(N3CCN(c4ccc(OC[C@@H]5CO[C@@](Cn6cncn6)(c6ccc(F)cc6F)C5)cc4)CC3)cc2)c1=O [PSZ, Posaconazole], the Cmax ([1]; FaSSIF) was 4.5 ± 0.2 µM, the “AUC (area under the dissolution curve)” value ([1]; FaSSIF) was 745 ± 18 µM·min and the “Final pH” value ([1]; FaSSIF) was 6.58 ± 0.01. For the same compound, the Cmax ([1]; FeSSIF) was 7 ± 3 µM, the “AUC (area under the dissolution curve)” value ([1]; FeSSIF) was 1190 ± 104 µM·min and the “Final pH” value ([1]; FeSSIF) was 4.95 ± 0.01. For the same compound, the fraction absorbed [2] was < 30%, the solubility ([3]; aqueous buffer, Blank FaSSIF, final pH 5.12) was 0.1 ± 0.04 µM (≈ 0.0701 µg/mL) and the solubility ([3]; aqueous buffer, Blank FeSSIF, final pH 5.11) was 0.12 ± 0.02 µM (≈ 0.0841 µg/mL). The solubility ([3]; simulated gastric fluid, Blank FaSSGF, final pH 1.94) was 83 ± 4 µM (≈ 58.2 µg/mL), the solubility ([3]; FaSSIF, final pH 5.07) was 3.6 ± 0.8 µM (≈ 2.52 µg/mL) and the solubility ([3]; FeSSIF, final pH 5.03) was 18 ± 5 µM (≈ 12.6 µg/mL). For the same compound, the “Log P” value [4] was 4.6 and the aqueous solubility [4] was < 1 µg/mL.

With CCC(C(C)O)n1ncn(-c2ccc(N3CCN(c4ccc(OCC5COC(Cn6cncn6)(c6ccc(F)cc6F)C5)cc4)CC3)cc2)c1=O.CCC(C(C)O)n1ncn(-c2ccc(N3CCN(c4ccc(OCC5COC(Cn6cncn6)(c6ccc(F)cc6F)C5)cc4)CC3)cc2)c1=O.Nc1ccc(C(=O)O)cc1.Nc1ccc(C(=O)O)cc1.Nc1ccc(C(=O)O)cc1 (centres unmarked) [PSZ-4ABA, posaconazole-4-aminobenzoic acid (PSZ-4ABA) cocrystal] the “RAUC (AUCPSZ-4ABA/AUCPSZ)” value ([1]; FaSSIF) was 4.1 and 4.1 ± 0.3, the Cmax ([1]; FaSSIF) was 48 ± 4 µM and the “AUC (area under the dissolution curve)” value ([1]; FaSSIF) was 3052 ± 209 µM·min. The “Final pH” value ([1]; FaSSIF) was 6.37 ± 0.01, the “RAUC (AUCPSZ-4ABA/AUCPSZ)” value ([1]; FeSSIF) was 13 and 13 ± 4 and the Cmax ([1]; FeSSIF) was 148 ± 3 µM. For the same compound, the “AUC (area under the dissolution curve)” value ([1]; FeSSIF) was 15,670 ± 4612 μM × min, the “Final pH” value ([1]; FeSSIF) was 5.01 ± 0.01 and the “Keu ([coformer]eu/[drug]eu)” value ([3]; Blank FaSSGF, final pH 1.94) was 0.0028 ± 0.0002 ×10^5. For the same compound, the “[4ABA]eu (coformer concentration at the eutectic point)” value (shortened to “[4ABA]eu”) ([3]; Blank FaSSGF, final pH 1.94) was 27.3 ± 0.4 mM, the “Final pH (pH at equilibrium)” value ([3]; Blank FaSSGF, initial pH 1.60) was 1.94 ± 0.01 and the “Keu ([coformer]eu/[drug]eu)” value ([3]; Blank FaSSIF, final pH 5.12) was 1.7 ± 0.6 ×10^5. The “[4ABA]eu” value ([3]; Blank FaSSIF, final pH 5.12) was 17.4 ± 0.1 mM, the “Final pH (pH at equilibrium)” value ([3]; Blank FaSSIF, initial pH 6.55) was 5.12 ± 0.03 and the “Keu ([coformer]eu/[drug]eu)” value ([3]; Blank FeSSIF, final pH 5.11) was 1.2 ± 0.3 ×10^5. For the same compound, the “[4ABA]eu” value ([3]; Blank FeSSIF, final pH 5.11) was 14.5 ± 0.2 mM, the “Final pH (pH at equilibrium)” value ([3]; Blank FeSSIF, initial pH 5.03) was 5.11 ± 0.01 and the “Keu ([coformer]eu/[drug]eu)” value ([3]; FaSSIF, final pH 5.07) was 0.06 ± 0.01 ×10^5. For the same compound, the “[4ABA]eu” value ([3]; FaSSIF, final pH 5.07) was 20.2 ± 0.4 mM, the “Final pH (pH at equilibrium)” value ([3]; FaSSIF, initial pH 6.50) was 5.07 ± 0.04 and the “Keu ([coformer]eu/[drug]eu)” value ([3]; FeSSIF, final pH 5.03) was 0.010 ± 0.003 ×10^5. The “[4ABA]eu” value ([3]; FeSSIF, final pH 5.03) was 17.3 ± 0.5 mM, the “Final pH (pH at equilibrium)” value ([3]; FeSSIF, initial pH 5.03) was 5.03 ± 0.14 and the “decrease of Sco (cocrystal solubility) with pH” value ([3]; pH increases from 1.9 to 5.1) was 20 times.
